Measured values reported in paper PMC8459971, “Evaluation of the hepatotoxicity of the novel GPR40 (FFAR1) agonist CPL207280 in the rat and monkey” (PLoS ONE, 2021).
Values joined by “and” are separate entries in the source; they are usually repeats but may differ in a detail not shown here. Identical values can stand only once.

Legend:
[1] = Stability in microsomes, human; format: in vitro ADME; details: for average DEG [%]: human microsomes, with cofactors
Procedure: (§1) The final incubation volume was 500 μL. Two control compounds (verapamil and donepezil) were included for each microsomal species, along with the appropriate vehicle control. The reactions were terminated by transferring 50 μL of incubate to 100 μL methanol containing an internal standard (metoprolol) at appropriate time points (0, 10, 20, 40, 60, and 120 min for the test compound and 0, 5, 10, 20, 40, and 60 min for the control compounds). The termination plates were centrifuged at 4000 x g at 4°C for 30 min to precipitate the protein. The supernatants were then collected for analysis, and LC-MS/MS was used for detection purposes. The system consisted of an Acquity™ Binary Solvent Manager, Acquity™ 4-position heated column manager, 2777 Ultra High Pressure Autosampler, and a Xevo-TQ MS triple quadrupole mass spectrometer (Waters Ltd., Herts, UK). This process was carried out twice.

[2] = Stability in microsomes, dog; format: in vitro ADME; details: for average DEG [%]: dog microsomes, with cofactors
Procedure: as §1

[3] = Stability in cryopreserved hepatocytes, monkey; format: in vitro ADME; details: for Compound Remaining (% of 0 min): Hepatocyte Stability Monkey, single replicates
Procedure: as §1

[4] = Metabolite profiling, human hepatocytes; format: in vitro ADME
Procedure: Suspensions of cryopreserved human, rat, and monkey hepatocytes were pooled from a minimum of three individuals. All cryopreserved hepatocytes were purchased from a commercial supplier. […] The cell density was 0.5 ×10^6 viable cells/mL. The final DMSO concentration during the incubation was 0.25%. Control incubations were performed in lysed cells to reveal any non-enzymatic degradation. Two control compounds were identified in each species. Samples (50 μL) were removed from the incubation mixture at 0, 10, 20, 40, 60, and 120 min and added to methanol containing an internal standard (100 μL) to stop the reaction. The samples were centrifuged (4000 x g at 4°C for 30 min) and the supernatants at each time point were pooled for analysis by LC MS/MS using Cyprotex generic methods. Following hepatocyte stability assays, the samples were utilized for metabolite profiling. […] Metabolites were characterized using a mass spectrometer comprising Waters Xevo QT of G2-S, Acquity Binary Solvent Manager, Acquity Column Manager, and 2777 Autosampler.

[5] = target: T1, OAT2v1 (Homo sapiens, UniProt Q9Y694); assay: Uptake transporter inhibition assay, OAT2v1; format: cell-based; details: for Accumulation (counts per minute; CPM) HEK293FT-MOCK / Accumulation (counts per minute; CPM) HEK293FT-OAT2v1: OAT2v1
T1 construct: expressed in transfected cells; host or cells: HEK cells
T1 sequence (Q9Y694 1-546 isoform Q9Y694-2): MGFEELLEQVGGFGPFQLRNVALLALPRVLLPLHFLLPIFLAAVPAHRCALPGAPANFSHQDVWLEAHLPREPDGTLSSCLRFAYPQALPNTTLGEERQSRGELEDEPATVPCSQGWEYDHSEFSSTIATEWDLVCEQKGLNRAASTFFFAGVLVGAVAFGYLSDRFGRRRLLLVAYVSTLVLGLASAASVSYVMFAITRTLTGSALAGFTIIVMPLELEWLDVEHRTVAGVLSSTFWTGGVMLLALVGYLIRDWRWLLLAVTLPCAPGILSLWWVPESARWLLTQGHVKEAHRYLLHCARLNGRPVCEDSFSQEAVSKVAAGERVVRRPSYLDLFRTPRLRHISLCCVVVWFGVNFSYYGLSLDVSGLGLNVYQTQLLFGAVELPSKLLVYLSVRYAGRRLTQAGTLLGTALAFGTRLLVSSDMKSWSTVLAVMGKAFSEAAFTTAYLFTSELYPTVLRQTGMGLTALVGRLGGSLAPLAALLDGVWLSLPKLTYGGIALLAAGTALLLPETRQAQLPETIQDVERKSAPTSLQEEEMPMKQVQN
Procedure: (§2) For the uptake transporter inhibition assay, cells were washed twice with 100 μL of the appropriate buffer (HK, pH 7.4) for OATP1B1, followed by HBSS (pH 7.4) for (NTCP, OAT1, OAT2v1, OATP1A2, and OATP1B3). Uptake experiments were carried out at 37 ± 1°C in 50 μL of the respective buffer containing the probe substrate and the compound or solvent.

[6] = target: T2, NTCP (Homo sapiens, UniProt Q14973); assay: Uptake transporter inhibition assay, NTCP; format: cell-based; details: for Accumulation (counts per minute; CPM) HEK293-NTCP / Accumulation (counts per minute; CPM) HEK293FT-MOCK: NTCP
T2 construct: expressed in transfected cells; host or cells: HEK cells
T2 sequence (Q14973 1-349): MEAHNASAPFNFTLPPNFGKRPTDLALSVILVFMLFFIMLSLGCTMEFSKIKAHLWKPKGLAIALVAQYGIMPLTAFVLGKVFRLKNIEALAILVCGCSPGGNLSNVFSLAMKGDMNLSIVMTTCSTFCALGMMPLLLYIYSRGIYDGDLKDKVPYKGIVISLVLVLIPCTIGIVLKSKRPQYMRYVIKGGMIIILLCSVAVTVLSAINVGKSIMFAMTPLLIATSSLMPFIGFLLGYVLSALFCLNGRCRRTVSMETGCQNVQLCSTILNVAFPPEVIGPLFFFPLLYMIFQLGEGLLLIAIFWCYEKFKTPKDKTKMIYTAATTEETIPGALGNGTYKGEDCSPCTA
Procedure: as §2

[7] = Dog (Beagle) microsomes, mean n = 2
[8] = cryopreserved hepatocytes (suspension), Monkey (Cynomolgus) hepatocytes, mean n = 2

Structure (SMILES): CC#C[C@@H](CC(=O)O)c1ccc(OCC(C)=C(C)C)cc1 [CPL207280]
- half-life at 3 μM ([1]; Human microsomes, mean n = 2): 28 min
- microsomal CLint at 3 μM ([1]; Human microsomes, mean n = 2): 49.2 µL/min/mg
- stability classification in microsomes ([1]; based on the Clint values from different species, reference ranges by Cyprotex (human range given in legend)): unstable compound
- average DEG [%] ([1]; 0 min): 100.0%
- average DEG [%] ([1]; 20 min): 45.8942%
- average DEG [%] ([1]; 40 min): 32.2635%
- average DEG [%] ([1]; 60 min): 21.8%
- half-life at 3 μM [2, 7]: 81 min
- microsomal CLint at 3 μM [2, 7]: 17.1 µL/min/mg
- average DEG [%] ([2]; 0 min): 100.0%
- average DEG [%] ([2]; 20 min): 86.5%
- average DEG [%] ([2]; 40 min): 74.9%
- average DEG [%] ([2]; 60 min): 59.3%
- Compound Remaining (% of 0 min) ([3]; 0 min): 100 % of 0 min
- Compound Remaining (% of 0 min) ([3]; 10 min): 65.3 % of 0 min and 63.2 % of 0 min
- Compound Remaining (% of 0 min) ([3]; 20 min): 38.4 % of 0 min and 39.7 % of 0 min
- Compound Remaining (% of 0 min) ([3]; 40 min): 17.5 % of 0 min and 19.5 % of 0 min
- Compound Remaining (% of 0 min) ([3]; 60 min): 8.86 % of 0 min and 11.4 % of 0 min
- Compound Remaining (% of 0 min) ([3]; 120 min): 8.94 % of 0 min and 8.99 % of 0 min
- half-life at 3 μM [3, 8]: 17 min
- microsomal CLint at 3 μM [3, 8]: 81.4 µL/min/mg
- number of metabolites produced by human hepatocytes ([4]; human hepatocytes, 10 μM): 12
- human % of parent at 60 min ([4]; human hepatocytes, 10 μM CPL207280, 60 min, ND = not detected): 8.49%
- number of metabolites identified ([4]; in all species (humans, rats, mice, monkeys, dogs), hepatocytes, 10 μM): 23
- Acyl glucuronide presence in human hepatocytes ([4]; summary table): No
- fold less inhibitory potency than TAK-875, OAT2v1 [5]: at least 10 fold
- Accumulation (counts per minute; CPM) HEK293FT-MOCK ([5]; conc 0.10 µM): 34 CPM and 30 CPM
- Accumulation (counts per minute; CPM) HEK293FT-OAT2v1 ([5]; conc 0.10 µM): 4632 CPM and 4226 CPM
- Accumulation (counts per minute; CPM) HEK293FT-MOCK ([5]; conc 1.00 µM): 35 CPM and 32 CPM
- Accumulation (counts per minute; CPM) HEK293FT-OAT2v1 ([5]; conc 1.00 µM): 4766 CPM and 4500 CPM
- Accumulation (counts per minute; CPM) HEK293FT-MOCK ([5]; conc 3.00 µM): 30 CPM and 23 CPM
- Accumulation (counts per minute; CPM) HEK293FT-OAT2v1 ([5]; conc 3.00 µM): 4371 CPM and 4417 CPM
- Accumulation (counts per minute; CPM) HEK293FT-MOCK ([5]; conc 10.00 µM): 27 CPM and 18 CPM
- Accumulation (counts per minute; CPM) HEK293FT-OAT2v1 ([5]; conc 10.00 µM): 4079 CPM and 4225 CPM
- Accumulation (counts per minute; CPM) HEK293FT-MOCK ([5]; conc 30.00 µM): 32 CPM and 37 CPM
- Accumulation (counts per minute; CPM) HEK293FT-OAT2v1 ([5]; conc 30.00 µM): 3998 CPM and 4091 CPM
- Accumulation (counts per minute; CPM) HEK293FT-MOCK ([5]; conc 100.00 µM): 28 CPM and 36 CPM
- Accumulation (counts per minute; CPM) HEK293FT-OAT2v1 ([5]; conc 100.00 µM): 3763 CPM and 3594 CPM
- Accumulation (counts per minute; CPM) HEK293FT-MOCK ([5]; conc 300.00 µM): 35 CPM and 25 CPM
- Accumulation (counts per minute; CPM) HEK293FT-OAT2v1 ([5]; conc 300.00 µM): 2566 CPM and 2951 CPM
- Accumulation (counts per minute; CPM) HEK293-NTCP ([6]; conc 0.10 µM): 4707 CPM and 4966 CPM
- Accumulation (counts per minute; CPM) HEK293FT-MOCK ([6]; conc 0.10 µM): 25 CPM
- Accumulation (counts per minute; CPM) HEK293-NTCP ([6]; conc 1.00 µM): 4654 CPM and 4992 CPM
- Accumulation (counts per minute; CPM) HEK293FT-MOCK ([6]; conc 1.00 µM): 29 CPM and 25 CPM
- Accumulation (counts per minute; CPM) HEK293-NTCP ([6]; conc 3.00 µM): 4021 CPM and 4291 CPM
- Accumulation (counts per minute; CPM) HEK293FT-MOCK ([6]; conc 3.00 µM): 19 CPM and 23 CPM
- Accumulation (counts per minute; CPM) HEK293-NTCP ([6]; conc 10.00 µM): 3614 CPM and 3535 CPM
- Accumulation (counts per minute; CPM) HEK293FT-MOCK ([6]; conc 10.00 µM): 24 CPM and 36 CPM
- Accumulation (counts per minute; CPM) HEK293-NTCP ([6]; conc 30.00 µM): 2611 CPM and 3022 CPM
- Accumulation (counts per minute; CPM) HEK293FT-MOCK ([6]; conc 30.00 µM): 21 CPM
- Accumulation (counts per minute; CPM) HEK293-NTCP ([6]; conc 100.00 µM): 1462 CPM and 1666 CPM
- Accumulation (counts per minute; CPM) HEK293FT-MOCK ([6]; conc 100.00 µM): 25 CPM and 27 CPM
- Accumulation (counts per minute; CPM) HEK293-NTCP ([6]; conc 300.00 µM): 771 CPM and 846 CPM
- Accumulation (counts per minute; CPM) HEK293FT-MOCK ([6]; conc 300.00 µM): 29 CPM and 23 CPM
- IC50 ([6]; transformed HEK cells, up to 300μM, n = 2): 46.8 µM
